Measured values reported in the NIST ThermoML archive (doi:10.1016/j.jct.2008.03.015).
± gives the expanded uncertainty stated by the source.

conditions: Crystal 1

Normal melting temperature [°C] | SMILES
49.76 ± 0.62 | CCCCCCCCCCCCCCCCO [1-hexadecanol]
58.38 ± 0.62 | CCCCCCCCCCCCCCCCCCO [1-octadecanol]
24.07 ± 0.62 | CCCCCCCCCCCCO [dodecan-1-ol]
